Key:
[1] = tested on: Hairless mice (HRS/J strain); test: Repair of UV-B-caused skin damage in the hairless mouse; assay type: in vivo; conditions: three times a week, 10 weeks, Luna staining of elastin, total surface per 20 microscopic field
Text: Repair of UV-B-caused Skin Damage in the Hairless Mouse Hairless mice (HRS/J strain, Jackson Labs, aged 5-7 weeks at the beginning of the experiment) were irradiated three times a week with an arrangement of 8 Westinghouse irradiation lamps (FS40) which were placed about 20 cm above the animals. The radiation dose was controlled by a commercial phototherapeutic control device. The UV-B dose was chosen such that the dosage scarcely exceeded 0.06 J/cm^2, caused a minimal erythema, but no burning or scarring. After a total dose of about 3.5 J/cm^2 there resulted a significant elastosis which was evident from a histological report and which was confirmed by measuring the elastin using a radioimmunoassay for desmosin in the total skin. The desmosin content increased by two- to three-fold after 3.5 J/cm^2 UV-B irradiation. In order to make good the skin damage, the UV irradiation was interrupted and groups of animals were treated three times a week with different doses of compounds of formula I dissolved in acetone. These solutions were prepared freshly each week such that the dosage to be administered was present in […] of acetone and were applied topically to an area of about 10 cm^2 on the backs of the animals. A controlled group was treated only with acetone. After treatment for 10 weeks the animals were killed, skin preparations were prepared and the extent of the recovery was measured quantitatively by Luna staining of the elastin. In this experimental model the skin recovery is defined as the appearance of a normal dermis which extends from the epidermis to the layer of compressed elastin. The extent of the recovery was given by the width of this zone. The area of the zone on a standard length of the histological section was measured and the result was expressed as the total surface in mm^2 per 20 microscopic field.

Row | Compound | melting point | other results
1 | CCCCCCCCc1cc2c(cc1/C=C/c1ccc(C(=O)O)cc1)CCC(C)(C)CC2C (racemic) [Example 12, Rac-(E)-4-[2-(5,7,7-trimethyl-3-octyl-6,7,8,9-tetrahydro-5H-benzocyclohepten-2-yl)vinyl]benzoic acid] | 182 to 183 °C | 
2 | CCCCCCCOc1cc2c(cc1/C=C/c1ccc(C(=O)O)cc1)[C@]1(C)CCC[C@@]2(C)[C@@H]1O (racemic) [Example 14, (E)-4-[2-[(5RS,9SR,10RS)-3-heptyloxy-10-hydroxy-5,9-dimethyl-6,7,8,9-tetrahydro-5,9-methano-5H-benzocyclohepten-2-yl]vinyl]benzoic acid] | 89 to 90 °C | 
3 | CCCCOc1cc2c(cc1/C=C/C=C/C(C)=C/C(=O)O)[C@]1(C)CCC[C@@]2(C)[C@@H]1O (racemic) [Example 19, (2E,4E,6E)-(5RS,9SR,10RS)-7-(3-butoxy-10-hydroxy-5,9-dimethyl-6,7,8,9-tetrahydro-5,9-methano-5H-benzocyclohepten-2-yl)-3-methyl-hepta-2,4,6-trienoic acid] | 176 to 178 °C | 
4 | CCCCc1cc2c(cc1/C=C/c1ccc(C(=O)O)cc1)C(C)(C)CCC2(C)C [Compound B, 4-[(E)-2-(3-Butyl-5,5,8,8-tetramethyl-5,6,7,8-tetrahydro-naphth-2-yl)vinyl]benzoic Acid] |  | Recovery Zone ([1]; 0.5 μg topically in acetone): 15.6 ± 2.74 mm^2 • 10^−3; Recovery Zone ([1]; 2 μg topically in acetone): 20.5 ± 7.17 mm^2 • 10^−3
5 | CCCCCCc1cc2c(cc1/C=C/C=C/C(C)=C/C(=O)O)C(C)(C)CCC2(C)C [Compound C, (all E)-7-(3-Hexyl-5,5,8,8-tetramethyl-5,6,7,8-tetrahydro-naphthalen-2-yl)-3-methyl-hepta-2,4,6-trienoic Acid] |  | Recovery Zone ([1]; 2 μg topically in acetone): 32.8 ± 6.72 mm^2 • 10^−3; Recovery Zone ([1]; 10 μg topically in acetone): 59.5 ± 6.71 mm^2 • 10^−3
6 | CCc1cc2c(cc1/C=C/c1ccc(C(=O)O)cc1)C(C)(C)CCC2(C)C [Compound D, p-[(E)-2-(3-Ethyl-5,6,7,8-tetrahydro-5,5,8,8-tetramethyl-2-naphthyl)vinyl]benzoic Acid] |  | Recovery Zone ([1]; 0.5 μg topically in acetone): 15.5 ± 4.9 mm^2 • 10^−3; Recovery Zone ([1]; 2 μg topically in acetone): 19.1 ± 4.9 mm^2 • 10^−3; Recovery Zone ([1]; 10 μg topically in acetone): 46.5 ± 6.9 mm^2 • 10^−3
7 | CCCCCCCCc1cc2c(cc1/C=C/c1ccc(C(=O)O)cc1)C(C)(C)CCC2(C)C [Compound E, p-[(E)-2-(3-Octyl-5,6,7,8-tetrahydro-5,5,8,8-tetramethyl-2-naphthyl)vinyl]benzoic Acid] |  | Recovery Zone ([1]; 0.5 μg topically in acetone): 7.48 ± 1.7 mm^2 • 10^−3; Recovery Zone ([1]; 2 μg topically in acetone): 4.70 ± 2.0 mm^2 • 10^−3; Recovery Zone ([1]; 10 μg topically in acetone): 22.2 ± 8.3 mm^2 • 10^−3
8 | CCCCCOc1cc2c(cc1/C=C/c1ccc(C(=O)O)cc1)C(C)(C)CCC2(C)C [Example 8, (E)-4-[2-(5,5,8,8-Tetramethyl-3-pentoxy-5,6,7,8-tetrahydro-naphthalen-2-yl)vinyl]benzoic acid] | 148 to 149 °C | 
9 | CCCCCOc1cc2c(cc1/C=C/C=C/C(C)=C/C(=O)O)C(C)(C)CCC2(C)C [Example 10 (2E isomer), (2E,4E,6E)-3-methyl-7-(5,5,8,8-tetramethyl-3-pentoxy-5,6,7,8-tetrahydro-naphthalen-2-yl)-hepta-2,4,6-trienoic acid] | 162 to 163 °C | 
10 | CCCCCCCCc1cc2c(cc1/C=C/c1ccc(C(=O)O)cc1)CCC(C)(C)CC2 [Example 11, (E)-4-[2-(7,7-dimethyl-3-octyl-6,7,8,9-tetrahydro-5H-benzocyclohepten-2-yl)vinyl]benzoic acid] | 179.5 to 180.5 °C | 
11 | CCCCc1cc2c(cc1/C=C/c1ccc(C(=O)O)cc1)C(C)(C)CCCC2 [Example 13 (fourth compound), (E)-4-[2-(3-butyl-9,9-dimethyl-6,7,8,9-tetrahydro-5H-benzocyclohepten-2-yl)vinyl]benzoic acid] | 81 to 83 °C | 
12 | CCCCCCC1C2=C(CC1/C=C/c1ccc(C(=O)O)cc1)C(C)(C)CC=C2 (stereo not shown) [Example 13 (second compound), (E)-4-[2-(3-Hexyl-7,7-dimethyl-indan-2-yl)vinyl]benzoic acid] | 149 to 150 °C | 
13 | CCCCCCc1cc2c(cc1/C=C/c1ccc(C(=O)O)cc1)CCCCC2(C)C [Example 13 (third compound), (E)-4-[2-(3-hexyl-5,5-dimethyl-6,7,8,9-tetrahydro-5H-benzocyclohepten-2-yl)vinyl]benzoic acid] | 133 to 134 °C | 
14 | CCCCc1cc2c(cc1/C=C/c1ccc(C(=O)O)cc1)CCCCC2(C)C [Example 13, (E)-4-[2-(3-Butyl-5,5-dimethyl-6,7,8,9-tetrahydro-5H-benzocyclohepten-2-yl)vinyl]benzoic acid] | 184 to 186 °C | 
15 | CCC#CCOc1cc2c(cc1/C=C/c1ccc(C(=O)O)cc1)C(C)(C)CCC2(C)C [Example 20, (E)-4-[2-(3-pent-2-ynyloxy-5,5,8,8-tetramethyl-5,6,7,8-tetrahydro-naphthalen-2-yl)-vinyl]-benzoic acid] | 144 to 145 °C | 
16 | C=CCOc1cc2c(cc1/C=C/c1ccc(C(=O)O)cc1)C(C)(C)CCC2(C)C [Example 22 (allyloxy), (E)-4-[2-(3-allyloxy-5,5,8,8-tetramethyl-5,6,7,8-tetrahydro-naphthalen-2-yl)-vinyl]-benzoic acid] | 191 to 192 °C | 
17 | C/C=C/COc1cc2c(cc1/C=C/c1ccc(C(=O)O)cc1)C(C)(C)CCC2(C)C [Example 22 (but-2-enyloxy), 4-[(E)-2-((E)-3-but-2-enyloxy-5,5,8,8-tetramethyl-5,6,7,8-tetrahydro-naphthalen-2-yl)-vinyl]-benzoic acid] | 178 to 180 °C | 

More lines, main results first:

Row | melting point | Compound | other results
18 | 134 to 136 °C | CCCCCCc1cc2c(cc1/C=C/c1ccc(C(=O)O)cc1)C(C)(C)CCC2(C)C [Compound A, p-[(E)-2-(3-Hexyl-5,6,7,8-tetrahydro-5,5,8,8-tetramethyl-2-naphthyl)vinyl]benzoic Acid] | Recovery Zone ([1]; 0.05 μg topically in acetone): 9.8 ± 2.8 mm^2 • 10^−3; Recovery Zone ([1]; 2 μg topically in acetone): 27.2 ± 2.6 mm^2 • 10^−3; Recovery Zone ([1]; 10 μg topically in acetone): 35.9 ± 7.5 mm^2 • 10^−3
19 | 173 to 174 °C | CCCCCc1cc2c(cc1/C=C/c1ccc(C(=O)O)cc1)C(C)(C)CCC2(C)C [Example 2, (E)-4-[2-(3-Pentyl-5,5,8,8-tetramethyl-5,6,7,8-tetrahydro-naphthalen-2-yl)vinyl]benzoic acid] | 
20 | 164 to 166 °C | CCCCCc1cc2c(cc1/C=C/C=C/C(C)=C/C(=O)O)C(C)(C)CCC2(C)C [Example 5, (2E,4E,6E)-7-(3-Pentyl-5,5,8,8-tetramethyl-5,6,7,8-tetrahydro-naphthalen-2-yl)-3-methyl-hepta-2,4,6-trienoic acid] | 
21 | 170 to 174 °C | CCCCCc1cc2c(cc1/C=C/C=C/C(C)=C\C(=O)O)C(C)(C)CCC2(C)C [Example 6, (2Z,4E,6E)-7-(3-Pentyl-5,5,8,8-tetramethyl-5,6,7,8-tetrahydro-naphthalen-2-yl)-3-methyl-hepta-2,4,6-trienoic acid] | 
22 | 118 to 119 °C | CCCCCC(=O)c1cc2c(cc1/C=C/c1ccc(C(=O)O)cc1)C(C)(C)CCC2(C)C [Example 16, (E)-4-[2-(3-hexanoyl-5,5,8,8-tetramethyl-5,6,7,8-tetrahydro-naphthalen-2-yl)vinyl]benzoic acid] | 
23 | 155 to 156 °C | CCCCCc1cc2c(cc1C#C/C=C/C(C)=C/C(=O)O)C(C)(C)CCC2(C)C [Example 17 (2E,4E), (2E,4E)-3-methyl-7-(5,5,8,8-tetramethyl-3-pentyl-5,6,7,8-tetrahydro-naphthalen-2-yl)-hepta-2,4-dien-6-ynoic acid] | 
24 | 208 to 209 °C | CCC#CCOc1cc2c(cc1/C=C/C=C/C(C)=C/C(=O)O)C(C)(C)CCC2(C)C [Example 21, (2E,4E,6E)-3-methyl-7-(3-pent-2-ynyloxy-5,5,8,8-tetramethyl-5,6,7,8-tetrahydro-naphthalen-2-yl)-hepta-2,4,6-trienoic acid] | 
25 | 193 to 194 °C | C=CCOc1cc2c(cc1/C=C/C=C/C(C)=C/C(=O)O)C(C)(C)CCC2(C)C [Example 23 (allyloxy), (2E,4E,6E)-7-(3-allyloxy-5,5,8,8-tetramethyl-5,6,7,8-tetrahydro-naphthalen-2-yl)-3-methyl-hepta-2,4,6-trienoic acid] | 
